According to patent publication US20200069648A1, “HALOALLYLAMINE PYRAZOLE DERIVATIVE INHIBITORS OF LYSYL OXIDASES AND USES THEREOF” (Pharmaxis Ltd., priority 2017, published 2020):
Counter-ions that a name gives are not always drawn.

Experiments:
Format in all cases: biochemical
Human LOXL2 = target: T1, Human LOXL2 (Homo sapiens, UniProt Q9Y4K0); test: LOXL2 amine oxidase inhibition, peroxidase-coupled Amplex Red assay; conditions: 30 min preincubation at 37° C., putrescine substrate
T1 sequence (Q9Y4K0 26-774): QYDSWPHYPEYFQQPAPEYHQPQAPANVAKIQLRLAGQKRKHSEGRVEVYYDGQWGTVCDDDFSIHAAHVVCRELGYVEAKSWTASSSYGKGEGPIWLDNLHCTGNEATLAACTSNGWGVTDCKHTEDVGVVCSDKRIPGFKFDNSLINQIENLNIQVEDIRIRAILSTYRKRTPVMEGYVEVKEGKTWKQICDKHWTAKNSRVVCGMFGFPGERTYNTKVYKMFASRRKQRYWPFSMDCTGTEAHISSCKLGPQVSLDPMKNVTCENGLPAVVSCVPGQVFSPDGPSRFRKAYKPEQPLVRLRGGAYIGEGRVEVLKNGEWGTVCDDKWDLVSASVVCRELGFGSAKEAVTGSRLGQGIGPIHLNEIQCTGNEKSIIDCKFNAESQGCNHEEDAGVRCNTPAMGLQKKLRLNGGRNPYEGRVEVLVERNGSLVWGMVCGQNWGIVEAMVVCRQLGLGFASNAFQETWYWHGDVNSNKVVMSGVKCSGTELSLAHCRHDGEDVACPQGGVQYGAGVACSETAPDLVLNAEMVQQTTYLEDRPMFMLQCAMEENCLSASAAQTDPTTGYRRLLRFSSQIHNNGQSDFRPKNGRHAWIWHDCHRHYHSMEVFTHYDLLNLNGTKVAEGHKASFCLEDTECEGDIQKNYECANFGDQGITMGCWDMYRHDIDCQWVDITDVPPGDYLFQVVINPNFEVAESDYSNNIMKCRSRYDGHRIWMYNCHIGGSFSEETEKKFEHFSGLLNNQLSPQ
Text: (§1) Method to Determine the Ability of Compounds of the Invention to Inhibit LOX and LOXL1-4 from Different Sources
(§2) Lysyl oxidase (LOX) is an extracellular copper dependent enzyme which oxidizes peptidyl lysine and hydroxylysine residues in collagen and lysine residues in elastin to produce peptidyl alpha-aminoadipic-delta-semialdehydes. […] There are five LOX family members; these are LOX, LOXL1, LOXL2, LOXL3 and LOXL4. LOX and LOXL family members can be acquired as recombinant active proteins from commercial sources, or extracted from animal tissues like bovine aorta, tendons, pig skin; or prepared from cell cultures. The inhibitory effects of the compounds of the present invention were tested against the given LOX-LOXL preparation using a high-throughput coupled colorimetric method (Holt A. and Palcic M., A peroxidase-coupled continuous absorbance plate-reader assay for flavin monoamine oxidases, copper-containing amine oxidases and related enzymes. Nat. Protoc. 2006; 1: 2498-2505). The assay was developed using either 384 or 96 well format. Briefly, in a standard 384 well plate assay 25 μL of a dilution of any of the isoenzymes and orthologues in 1.2 M urea, 50 mM sodium borate buffer (pH 8.2) were added into each well in the presence of 1 μM mofegiline and 0.5 mM pargyline (to inhibit SSAO and MAO-B and MAO-A, respectively). Test compounds were dissolved in DMSO and tested in a Concentration Response Curve (CRC) with 11 data points, typically in the micromolar or nanomolar range after incubation with the enzyme for 30 min at 37° C. Twenty five μL of a reaction mixture containing twice the KM concentration of putrescine (Sigma Aldrich, e.g. 20 mM for LOX, or 10 mM for LOXL2 and LOXL3), 120 μM Amplex Red (Sigma Aldrich) and 1.5 U/mL horseradish peroxidase (Sigma Aldrich) prepared in 1.2 M urea, 50 mM sodium borate buffer (pH 8.2) were then added to the corresponding wells. The above volumes were doubled in the case of 96 wells plate. The fluorescence (RFU) was read every 2.5 min for 30 min at a range of temperatures from 37° to 45° C., excitation 565 nm and emission 590 (Optima; BMG labtech). The slope of the kinetics for each well was calculated using MARS data analysis software (BMG labtech) and this value was used to deduce the IC50 value (Dotmatics).

Recombinant human MAO-B = target: T2, Recombinant human MAO-B (Homo sapiens, UniProt P27338); test: Human recombinant MAO-B inhibition; conditions: benzylamine 100 μM
T2 construct: purchased Sigma Aldrich
T2 sequence (P27338 1-520): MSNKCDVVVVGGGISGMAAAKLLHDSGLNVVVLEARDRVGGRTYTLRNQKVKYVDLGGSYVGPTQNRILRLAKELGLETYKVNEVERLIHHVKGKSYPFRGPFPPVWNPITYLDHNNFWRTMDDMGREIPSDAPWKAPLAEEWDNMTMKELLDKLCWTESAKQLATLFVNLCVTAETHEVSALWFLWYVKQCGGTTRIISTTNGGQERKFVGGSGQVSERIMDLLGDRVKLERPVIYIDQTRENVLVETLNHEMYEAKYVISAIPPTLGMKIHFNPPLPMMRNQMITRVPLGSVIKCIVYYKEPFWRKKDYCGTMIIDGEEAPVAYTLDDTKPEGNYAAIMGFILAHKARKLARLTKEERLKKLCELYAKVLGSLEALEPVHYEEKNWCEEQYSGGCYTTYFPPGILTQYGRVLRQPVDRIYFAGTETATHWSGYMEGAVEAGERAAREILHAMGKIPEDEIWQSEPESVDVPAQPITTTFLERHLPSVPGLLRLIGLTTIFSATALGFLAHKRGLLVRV
Procedure: Method to Determine the Ability of Compounds of Formula I to Inhibit Human Recombinant MAO-B
The specificity of the compounds of this invention was tested by determining their ability to inhibit MAO-B activities in vitro. Recombinant human MAO-B (0.06 mg/mL; Sigma Aldrich) was used as source of MAO-B enzyme activities. The assay was performed in a similar way as for human SSAO/VAP-1 (Example 46) except, the substrate benzylamine was used at 100 μM.

Bovine LOX = target: T3, Bovine LOX (Bos taurus, UniProt P33072); test: LOX amine oxidase inhibition, peroxidase-coupled Amplex Red assay; conditions: 30 min preincubation at 37° C., putrescine substrate
T3 sequence (P33072 170-418): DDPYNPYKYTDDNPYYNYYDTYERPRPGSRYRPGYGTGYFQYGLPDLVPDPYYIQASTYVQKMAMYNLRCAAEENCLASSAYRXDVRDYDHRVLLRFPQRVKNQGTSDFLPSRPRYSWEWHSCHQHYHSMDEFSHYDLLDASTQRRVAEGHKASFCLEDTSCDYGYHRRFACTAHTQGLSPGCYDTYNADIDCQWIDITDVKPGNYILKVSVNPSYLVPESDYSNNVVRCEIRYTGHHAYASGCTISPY
Text: as §1
as §2, with “Test compounds were dissolved in DMSO and tested in a Concentration Response Curve (CRC) with 11 data points, typically in the micromolar or nanomolar range after incubation with the enzyme for 30 min at 37° C.” left out

Row | IC50 (Human LOXL2) | IC50 (Recombinant human MAO-B) | IC50 (Bovine LOX) | Structure (SMILES)
1 | < 1 µM | > 30 µM | > 10 µM | Cc1nn(C/C(F)=C/CN)c(C(C)O)c1Cc1ccc(S(=O)(=O)N(C)C)c(Cl)c1 (stereo not shown) [Compound 36, (Z)-4-((1-(4-amino-2-fluorobut-2-en-1-yl)-5-(1-hydroxyethyl)-3-methyl-1H-pyrazol-4-yl)methyl)-2-chloro-N,N-dimethylbenzenesulfonamide]
2 | < 1 µM | – | < 10 µM | Cc1nn(C/C(F)=C/CN)c(C)c1Cc1ccc(S(N)(=O)=O)c(Cl)c1 [Compound 51, (Z)-4-((1-(4-amino-2-fluorobut-2-en-1-yl)-3,5-dimethyl-1H-pyrazol-4-yl)methyl)-2-chlorobenzenesulfonamide hydrochloride]
3 | > 1 µM | – | > 10 µM | Cc1nn(C/C(F)=C/CN)c(C(C)(C)O)c1Cc1ccc(S(=O)(=O)N(C)C)c(Cl)c1 [Compound 54, (Z)-4-((1-(4-amino-2-fluorobut-2-en-1-yl)-5-(2-hydroxypropan-2-yl)-3-methyl-1H-pyrazol-4-yl)methyl)-2-chloro-N,N-dimethylbenzenesulfonamide hydrochloride]
4 | < 1 µM | – | < 10 µM | Cc1nn(C/C(F)=C/CN)c(CO)c1Cc1ccc(S(=O)(=O)N(C)C)cc1Cl [Compound 55, (Z)-4-((1-(4-amino-2-fluorobut-2-en-1-yl)-5-(hydroxymethyl)-3-methyl-1H-pyrazol-4-yl)methyl)-3-chloro-N,N-dimethylbenzenesulfonamide hydrochloride]
5 | < 1 µM | – | < 10 µM | Cc1nn(C/C(F)=C/CN)c(C(F)(F)F)c1Cc1ccc(S(=O)(=O)N(C)C)c(Cl)c1 [Compound 56, (Z)-4-((1-(4-amino-2-fluorobut-2-en-1-yl)-3-methyl-5-(trifluoromethyl)-1H-pyrazol-4-yl)methyl)-2-chloro-N,N-dimethylbenzenesulfonamide hydrochloride]
6 | < 1 µM | – | < 10 µM | Cc1c(Cc2ccc(S(=O)(=O)N(C)C)c(Cl)c2)c(C(F)(F)F)nn1C/C(F)=C/CN [Compound 57, (Z)-4-((1-(4-amino-2-fluorobut-2-en-1-yl)-5-methyl-3-(trifluoromethyl)-1H-pyrazol-4-yl)methyl)-2-chloro-N,N-dimethylbenzenesulfonamide hydrochloride]
7 | < 1 µM | – | > 10 µM | CC(C)c1nn(C/C(F)=C/CN)c(C(C)O)c1Cc1ccc(S(=O)(=O)N(C)C)cc1Cl (stereo not shown) [Compound 58, (Z)-4-((1-(4-amino-2-fluorobut-2-en-1-yl)-5-(1-hydroxyethyl)-3-isopropyl-1H-pyrazol-4-yl)methyl)-3-chloro-N,N-dimethylbenzenesulfonamide hydrochloride]
8 | < 1 µM | – | < 10 µM | Cc1nn(Cc2ccc(S(=O)(=O)N(C)C)c(Cl)c2)c(C(C)O)c1C/C(F)=C/CN (stereo not drawn) [Compound 63, (Z)-4-((4-(4-amino-2-fluorobut-2-en-1-yl)-5-(l-hydroxyethyl)-3-methyl-1H-pyrazol-1-yl)methyl)-2-chloro-N,N-dimethylbenzenesulfonamide hydrochloride]
9 | < 1 µM | – | < 10 µM | CC(C)c1nn(Cc2ccc(S(=O)(=O)N(C)C)c(Cl)c2)c(C(C)C)c1C/C(F)=C/CN [Compound 64, (Z)-4-((4-(4-amino-2-fluorobut-2-en-1-yl)-3,5-diisopropyl-1H-pyrazol-1-yl)methyl)-2-chloro-N,N-dimethylbenzenesulfonamide hydrochloride]
10 | < 1 µM | – | < 10 µM | Cc1nn(C/C(F)=C/CN)c(C(C)C)c1Cc1ccc(S(=O)(=O)N(C)C)c(Cl)c1 [Compound 65, (Z)-4-((1-(4-amino-2-fluorobut-2-en-1-yl)-5-isopropyl-3-methyl-1H-pyrazol-4-yl)methyl)-2-chloro-N,N-dimethylbenzenesulfonamide hydrochloride]
11 | < 1 µM | – | < 10 µM | Cc1c(Cc2ccc(S(=O)(=O)N(C)C)c(Cl)c2)c(C(C)C)nn1C/C(F)=C/CN [Compound 66, (Z)-4-((1-(4-amino-2-fluorobut-2-en-1-yl)-3-isopropyl-5-methyl-1H-pyrazol-4-yl)methyl)-2-chloro-N,N-dimethylbenzenesulfonamide hydrochloride]
12 | < 1 µM | – | < 10 µM | CS(=O)(=O)c1cccc(-c2cnn(C/C(F)=C/CN)c2)c1 [Compound 67, (Z)-3-fluoro-4-(4-(3-(methylsulfonyl)phenyl)-1H-pyrazol-1-yl)but-2-en-1-amine hydrochloride]
